Patent US4315026A, “Alkylpolyoxysulfinyl and alkylpolythiosulfinyl derivatives of carbamate esters” (priority 1980, dated 1982)
Like-named read-outs stand apart in the source and are kept apart here.

Experiments:
[1] = tested on: house flies, Musca domestica; assay: whole plant or invertebrate; type: in vivo; details: read-out: House flies LD50
Method: In another series of tests, stock 1% concentrated solutions of each of the test compounds of Table I below, and of the commercial related carbamate ester insecticides methomyl, carbofuran and oxamyl, were made in acetone, and such solutions were diluted with acetone to a concentration of 0.001-0.8%. House flies were treated topically on the notum by 1 μl of each of the diluted acetone solutions and percent mortality was counted 24 hours after application.

[2] = Mammalian toxicity, oral, Swiss white mice (LD50); type: in vivo; details: mouse, in vivo, propylene glycol carrier
Method: For mice toxicity, the compound was dissolved in propyleneglycol or corn oil as a carrier and all compounds were tested at the level up to 1,000 mg/kg. All of the above noted compounds tested were lower in toxicity as compared with the parent compounds.
Mammalian toxicity was determined against Swiss white mice.

[3] = topical on the notum, 1 μl of 0.001-0.8% acetone solutions, 24 hours, 60° F

| Compound | LD50 [1, 3] [mg/kg] | LD50 [2] [mg/kg] | LD50 ([1]; topical, 24 h) [mg/kg] |
| --- | --- | --- | --- |
| CSC(C)=NOC(=O)N(C)S(=O)OCC(COC(C)C)OS(=O)N(C)C(=O)ON=C(C)SC (stereo not drawn) [XIV, N,N'-(3-Isopropoxy-1,2-propanedioxysulfinyl)-bis (S-methyl N-methylcarbamoyloxythioacetimidate)] | 81.5 | 170 | – |
| C=CCOCC(COS(=O)N(C)C(=O)Oc1cccc2ccccc12)OS(=O)N(C)C(=O)Oc1cccc2ccccc12 (stereo not drawn) [XXXVI, N,N'-(3-Allyloxy-1,2-propanedioxysulfinyl)-bis(1-naphthyl methylcarbamate)] | – | > 1000 | – |
| CSC(C)=NOC(=O)N(C)S(=O)OC1COC(c2ccccc2)OC1 (stereo not drawn) [X, S-Methyl N-(2-phenyl-1,3-dioxane-5-ylmethoxysulfinyl)N-methylcarbamoyloxythioacetimidate] | – | 85 | – |
| CNC(=O)Oc1cccc2c1OC(C)(C)C2 [carbofuran, reference compound] | – | 2 | 6.7 |
| CSC(=NOC(=O)N(C)S(=O)OCC(COC(C)C)OS(=O)N(C)C(=O)ON=C(SC)C(=O)N(C)C)C(=O)N(C)C (stereo not drawn) [XXXII, N,N'-(3-Isopropoxy-1,2-propanedioxysulfinyl)-bis[S-methyl N-methylcarbamoyloxy-2-(N',N'-dimethylamino)-2-oxoethanimidothioate]] | – | 16 | – |
| CSC(=NOC(=O)N(C)S(=O)OCC(COCc1ccccc1)OS(=O)N(C)C(=O)ON=C(SC)C(=O)N(C)C)C(=O)N(C)C (stereo not drawn) [XXXI, N,N'-(3-Benzyloxy-1,2-propanedioxysulfinyl)-bis-[S-methylcarbamoyloxy-2-(N',N'-dimethylamino)-2-oxoethanimidothioate]] | – | 12.5 to 25 | – |
| CSC(C)=NOC(=O)N(C)S(=O)OC1C2OC(C)(C)OC2COC12COC(C)(C)O2 (stereo not drawn) [XVII, S-Methyl N-(1,2,4,5-di-O-isopropylidene-3-O-fructopyranosylsulfinyl)-N-methylcarbamoyloxythioacetimidate] | 115 | 1000 | – |
| CNC(=O)ON=C(SC)C(=O)N(C)C [oxamyl, reference compound] | 3.6 | 3.7 | – |
| CSC(C)=NOC(=O)N(C)S(=O)OCC(COCc1ccccc1)OS(=O)N(C)C(=O)ON=C(C)SC (stereo not drawn) [XIII, N,N'-(3-Benzyloxy-1,2-propanedioxysulfinyl)-bis (S-methyl N-methylcarbamoyloxythioacetimidate)] | < 50 | 50 to 100 | – |
| C=CCOC(COS(=O)N(C)C(=O)Oc1cccc2ccccc12)COS(=O)N(C)C(=O)Oc1cccc2ccccc12 (stereo not drawn) [XXXVII, N,N'-(2-Allyloxy-1,3-propanedioxysulfinyl)-bis(1-naphthyl methylcarbamate)] | – | > 1000 | – |
| CC(C)Oc1ccccc1OC(=O)N(C)S(=O)OCC12OCC3OC(C)(C)OC3C1OC(C)(C)O2 (stereo not drawn) [XXXXIV, 2-Isopropoxyphenyl N-(2,3,4,5-di-O-isopropylidene-1-α-O-fructopyranosylsulfinyl)-N-methylcarbamate] | – | > 1000 | – |
| CN(C(=O)Oc1cccc2c1OC(C)(C)C2)[S+]([O-])SCCS[S+]([O-])N(C)C(=O)Oc1cccc2c1OC(C)(C)C2 (stereo not drawn) [IX] | – | 87 | 36 |
| C=CCOCC(COS(=O)N(C)C(=O)Oc1cccc(C)c1)OS(=O)N(C)C(=O)Oc1cccc(C)c1 (stereo not drawn) [XIX, N,N'-(3-Allyloxy-1,2-propanedioxysulfinyl)-bis (3-methylphenyl methylcarbamate)] | – | > 1000 | – |
| Cc1cccc(OC(=O)N(C)S(=O)OCC(COC(C)C)OS(=O)N(C)C(=O)Oc2cccc(C)c2)c1 (stereo not drawn) [XXIII, N,N'-(3-Isopropoxy-1,2-propanedioxysulfinyl)-bis (3-methyl-phenyl methylcarbamate)] | – | > 1000 | – |
| CSC(C)=NOC(=O)N(C)S(=O)OCC(COS(=O)N(C)C(=O)ON=C(C)SC)OS(=O)N(C)C(=O)ON=C(C)SC (stereo not drawn) [XV, N,N',N",-(1,2,3-Propanetrioxysulfinyl)-tris (S-methyl N-methylcarbamoyloxythioacetimidate)] | – | 50 to 100 | – |
| CSC(C)=NOC(=O)N(C)[S+]([O-])SCCS[S+]([O-])N(C)C(=O)ON=C(C)SC (stereo not drawn) [Example VIII, N,N'-(1,2-Ethanedithiosulfinyl)-bis (S-methyl N-methylcarbamoyloxy thioacetimidate)] | 75 | 250 | – |
| Cc1cccc(OC(=O)N(C)S(=O)OCC2COC(C)(C)O2)c1 (stereo not drawn) [XX, 3-Methylphenyl N-(2,2-dimethyl-1,3-dioxolane-5-ylmethoxysulfinyl)-N-methylcarbamate] | – | > 1000 | – |
| CN(C(=O)Oc1cccc2ccccc12)S(=O)OCC(COCc1ccccc1)OS(=O)N(C)C(=O)Oc1cccc2ccccc12 (stereo not drawn) [XXXVIII, N,N'-(3-Benzyloxy-1,2-propanedioxysulfinyl)-bis(1-naphthyl methylcarbamate)] | – | > 1000 | – |
| CN(C(=O)Oc1cccc2ccccc12)S(=O)OC1C2OC(C)(C)OC2COC12COC(C)(C)O2 (stereo not drawn) [XXXXII, 1-Naphthyl N-(1,2,4,5-di-O-isopropylidene-3-α-O-fructopyranosylsulfinyl)-N-methylcarbamate] | – | > 1000 | – |
| Cc1cccc(OC(=O)N(C)S(=O)OC2C3OC(C)(C)OC3COC23COC(C)(C)O3)c1 (stereo not drawn) [XXV, 3-Methylphenyl N-(1,2,4,5-di-O-isopropylidene-3-O-fructopyranosylsulfinyl)-N-methylcarbamate] | – | > 1000 | – |
| CN(C(=O)Oc1cccc2ccccc12)S(=O)OCC12OCC3OC(C)(C)OC3C1OC(C)(C)O2 (stereo not drawn) [XXXXI, 1-Naphthyl N-(2,3,4,5-di-O-isopropylidene-1-α-O-fructopyranosylsulfinyl)-N-methylcarbamate] | – | > 1000 | – |
| Cc1cccc(OC(=O)N(C)S(=O)OCC(COCc2ccccc2)OS(=O)N(C)C(=O)Oc2cccc(C)c2)c1 (stereo not drawn) [XXII, N,N'-(3-Benzyloxy-1,2-propanedioxysulfinyl)-bis (3-methylphenyl methylcarbamate)] | – | > 1000 | – |
| Cc1cccc(OC(=O)N(C)S(=O)OCC23OCC4OC(C)(C)OC4C2OC(C)(C)O3)c1 (stereo not drawn) [XXIV, 3-Methylphenyl N-(2,3,4,5-di-O-isopropylidene-1-α-O-fructopyranosylsulfinyl)-N-methylcarbamate] | – | > 1000 | – |
| Cc1cccc(OC(=O)N(C)S(=O)OC2C(C3COC(C)(C)O3)OC3OC(C)(C)OC32)c1 (stereo not drawn) [XXVI, 3-Methylphenyl N-(1,2,5,6-di-O-isopropylidene-3-O-glucofuranosylsulfinyl)-N-methylcarbamate] | – | > 1000 | – |
| CNC(=O)ON=C(C)SC [methomyl, reference compound] | 3.7 | – | – |
| CC(C)OCC(COS(=O)N(C)C(=O)Oc1cccc2ccccc12)OS(=O)N(C)C(=O)Oc1cccc2ccccc12 (stereo not drawn) [XXXIX, N,N'-(3-Isopropoxy-1,2-propanedioxysulfinyl)-bis(1-naphthyl methylcarbamate)] | – | > 1000 | – |
| CC(C)Oc1ccccc1OC(=O)N(C)S(=O)OCC(COS(=O)N(C)C(=O)Oc1ccccc1OC(C)C)OS(=O)N(C)C(=O)Oc1ccccc1OC(C)C (stereo not drawn) [XXXXIII, N,N',N"(1,2,3-Propanetrioxysulfinyl)-tris-(2-isopropoxyphenyl methylcarbamate)] | – | > 1000 | – |
| C=CCOC(COS(=O)N(C)C(=O)Oc1cccc(C)c1)COS(=O)N(C)C(=O)Oc1cccc(C)c1 (stereo not drawn) [XXI, N,N'-(2-Allyloxy-1,3-propanedioxysulfinyl)-bis (3-methylphenyl methylcarbamate)] | – | > 1000 | – |
| CN(C(=O)Oc1cccc2ccccc12)S(=O)OCC(COS(=O)N(C)C(=O)Oc1cccc2ccccc12)OS(=O)N(C)C(=O)Oc1cccc2ccccc12 (stereo not drawn) [XXXX, N,N',N"-(1,2,3-Propanetrioxysulfinyl)-tris-(1-naphthyl methylcarbamate)] | – | > 1000 | – |
